Where two headings read alike, the source gives them in different places.
Legend:
GLI-luciferase reporter = target: GLI-luciferase reporter; design: method as in PMID 24923765; conditions: cited from earlier work
[1] = MTT cytotoxicity assay, HEK293 control cells; assay type: cell-based, human; conditions: human, HEK293 cells; 50 µM, 72 h, MTT;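 further: Read-out is formazan absorbance at 570 nm from MTT reduction in 96-well plates, with three independent biological replicates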
HEK293 = experiment: MTT cytotoxicity assay, HEK293 control cells; assay type: cell-based, human; conditions: Homo sapiens, HEK293; MTT, 72 h, non-cancer cell line;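 further: Read-out is formazan absorbance at 570 nm from MTT reduction in 96-well plates, with three independent biological replicates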
AsPC-1 = experiment: MTT cytotoxicity assay, AsPC-1; assay type: cell-based; conditions: Homo sapiens, ASPC1, 72 h, 0.05–50 µM
Protocol: (§1) Cytotoxicity assays were performed by using the MTT reduction method as described previously. Briefly, cancer cell lines were plated in flat-bottom 96-well plates at a cell concentration of 5 × 10^3 cells/well for the fastest growing lines, such as HEK293 and HT29 cells and 1 × 10^4 cells/well for more slowly growing lines, such as HCT116, H1975, BxPC-3, AsPC-1, B16-F10 and DAOY. Then, cells were incubated with the synthesised compounds at different concentrations (from 0.05 to 50 µM) in 200 µL with 10% FBS in RPMI 1640 or DMEM F12 culture medium at 37 °C for 72 h. Later, 10 µL of MTT were added at a final concentration of 0.5 mg/mL, incubated at 37 °C for 4 h, and then solubilised with 10% sodium dodecyl sulphate (SDS) in 0.1 mM HCl and incubated overnight at 37 °C. Formazan formation was measured at 570 nm in a multiwell plate reader (Cytation 5, Biotek Instruments, Winooski, VT, USA). Three independent biological replicates were performed.

HCT116 = experiment: MTT cytotoxicity assay, HCT116; assay type: cell-based; conditions: Homo sapiens; for cytotoxicity at 50 µM: read-out: % Cytotoxicity (50 µM) HCT116; for IC50: 0.05–50 µM
Protocol: as §1

Daoy = experiment: MTT cytotoxicity assay, Daoy; assay type: cell-based, human; conditions: Homo sapiens, Daoy, 72 h; for cytotoxicity at 50 µM: read-out: % Cytotoxicity (50 µM) DAOY; for IC50: 0.05–50 µM;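 on all read-outs here: viability read as formazan absorbance at 570 nm after MTT reduction, three independent biological replicates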
HT29 = experiment: MTT cytotoxicity assay, HT29; assay type: cell-based; conditions: Homo sapiens; for cytotoxicity at 50 µM: read-out: % Cytotoxicity (50 µM) HT29; for IC50: 0.05–50 µM
Protocol: as §1

H1975 = experiment: MTT cytotoxicity assay, H1975; assay type: cell-based; conditions: Homo sapiens; for cytotoxicity at 50 µM: read-out: % Cytotoxicity (50 µM) H1975; for IC50: 0.05–50 µM
Protocol: as §1

tumour cell lines = experiment: MTT cytotoxicity assay, summary over the tumour cell line panel; assay type: cell-based, human; conditions: 50 µM, 72 h, MTT, tumour cell lines tested
Protocol: as §1

BxPC-3 = experiment: MTT cytotoxicity assay, BxPC-3; assay type: cell-based; conditions: Homo sapiens, 72 h, 0.05–50 µM
Protocol: as §1

| SMILES | IC50 in GLI-luciferase reporter assays (GLI-luciferase reporter) | cytotoxicity at 72 h, 50 µM [1] | IC50 (HEK293) | IC50 (AsPC-1) | cytotoxicity at 50 µM (HCT116; HCT-116, 50 µM, 72 h, MTT) | IC50 (HCT116; HCT-116, MTT, 72 h) | cytotoxicity at 50 µM (Daoy; 50 µM, MTT) | cytotoxicity at 50 µM (HT29; HT-29, 50 µM, 72 h, MTT) | IC50 (HT29; HT-29, MTT, 72 h) | cytotoxicity at 50 µM (H1975; NCI-H1975, 50 µM, 72 h, MTT) | IC50 (H1975; NCI-H1975, MTT, 72 h) | cytotoxicity in tumour cell lines (tumour cell lines) | IC50 (BxPC-3) | melting point | IC50 (Daoy; MTT) | cytotoxicity at 50 µM (HCT116; HCT-116, 72 h) | cytotoxicity at 50 µM (Daoy) | cytotoxicity at 50 µM (HT29; HT-29, 72 h) | cytotoxicity at 50 µM (H1975; NCI-H1975, 72 h) |
| --- | --- | --- | --- | --- | --- | --- | --- | --- | --- | --- | --- | --- | --- | --- | --- | --- | --- | --- | --- |
| Cc1cccc(C)c1NC(=O)c1ccc(Nc2nc(-c3ccc(OC(F)(F)F)cc3)c3ncn(C)c3n2)cc1 [III] | nanomolar range |  |  |  |  |  |  |  |  |  |  |  |  |  |  |  |  |  |  |
| Cc1ccc(CN2CCOCC2)cc1NC(=O)c1ccc(Nc2nc(-c3ccc(OC(F)(F)F)cc3)c3ncn(C)c3n2)cc1 [IV] | nanomolar range |  |  |  |  |  |  |  |  |  |  |  |  |  |  |  |  |  |  |
| CCCCCn1cnc2c(-c3ccc(OC(F)(F)F)cc3)nc(N3CCN(c4ccncc4)CC3)nc21 [Compound 4r, 9-Pentyl-2-(4-(pyridin-4-yl)piperazin-1-yl)-6-(4-(trifluoromethoxy)phenyl)-9H-purine] |  | < 50% | > 50 µM | > 50 µM | 81 ± 0.8% | 19 ± 0.8 µM | 92 ± 0.4% | < 50% | > 50 µM | < 50% | 7.7 ± 0.4 µM | more than 80% | > 50 µM | 109 to 110 °C |  |  |  |  |  |
| CCCCn1cnc2c(-c3ccc(OC(F)(F)F)cc3)nc(NC3CCCC3)nc21 [Compound 4a, 9-Butyl-N-cyclopentyl-6-(4-(trifluoromethoxy)phenyl)-9H-purin-2-amine] |  | < 50% | > 50 µM | 20.1 ± 0.3 µM | 68 ± 0.3% | 32 ± 0.3 µM | 82 ± 6.2% | < 50% | > 50 µM | 66 ± 0.9% | 34 ± 0.9 µM |  | > 50 µM | 93 to 95 °C | 18 ± 0.2 µM |  |  |  |  |
| CCCCCn1cnc2c(-c3ccc(OC(F)(F)F)cc3)nc(NCC3CCCCC3)nc21 [Compound 4h, N-(cyclohexylmethyl)-9-pentyl-6-(4-(trifluoromethoxy)phenyl)-9H-purin-2-amine] |  | < 50% | > 50 µM | > 50 µM |  | > 50 µM |  |  | > 50 µM |  | 39 ± 1.2 µM |  | > 50 µM | 78 to 79 °C | 19 ± 1.1 µM | < 50% | 81 ± 1.1% | < 50% | 61 ± 1.2% |
